Legend:
[1] = Examination of salts of Compound 17 for crystallization; format: physicochemical; details: for State: salt of Compound 17 with the stated counter base, concentrated from methanol, triturated with various solvents; for State of the salt: salts of Compound 17 with the named bases
Description: Then, the mixture was concentrated under reduced pressure and trituration was conducted with using various solvents. For the examination, ethyl acetate, methyl t-butyl ether, n-hexane and the like were used as the solvents.

[2] = Chemical stability test (residual percentage by HPLC after storage); format: physicochemical; details: for Residual percentage (%): relative to sample stored at −20° C., HPLC; for residual percentages: during storage under each condition
Description: With respect to Compound 17 and Crystalline forms A, B and C of Compound 18, chemical stability test was conducted according to the method and the condition below.
In a laboratory tube, approximately 1.5 to 3 mg of a test compound was weighed and stored under the condition below.
After storing, the residual percentage (%) of the sample stored under each condition relative to the area percentage of the main component in the sample stored at −20° C. was calculated with using HPLC. In addition, the appearance was observed by eye and compared with the sample stored at −20° C.
80° C.: One week, two weeks and one month
60° C.: Two weeks and one month
40° C.: Two weeks, one month, two months, four months and six months
25° C.-60% RH: Two months, four months and six months
5° C.: Two months, four months and six months
40° C.-75% RH (opened): Two weeks, one month, two months, four months and six months
25° C.-40% RH (opened): Two weeks, one month and two months
25° C.-60% RH (opened): Two weeks, one month and two months
25° C.-75% RH (opened): Two weeks, one month and two months
The samples to be compared with the samples above were stored at −20° C.
A sample to be evaluated was dissolved in a mixed solution of acetonitrile/20 mmol/L KH2PO4 aq. (pH3.0 with H3PO4) (1/1) and a solution of 1.0 mg/mL (concentration as a salt) was prepared.
Detector: Ultraviolet absorptiometer (measurement wavelength: 215 nm)
Column: CHIRALCEL OD-3R (150×4.6 mm, S-5 μm)
Column temperature: 25° C.
Mobile phase: Solution A: 20 mmol/L KH2PO4 aq. (pH3.0 with H3PO4), Solution B: CH3CN
Area measurement range: 35 minutes

bladder detrusor = test: Evaluation of the activity to contract the bladder detrusor (bladder strip specimens, Magnus system); format: tissue-based; details: rat bladder strip; for Change of tension (%): contraction evoked by potassium chloride solution (7.5 mmol/L) set at 100%
Description: Rats were anesthetized with pentobarbital, followed by abdominal incision to remove the bladders and the urethras. The bladder bodies were cut in the longitudinal direction to prepare strip specimens with a size of about 10×3 mm. Additionally, each of the urethras was also cut in the longitudinal direction to prepare specimens with a size of about 10×3 mm. The prepared specimens were suspended in Krebs buffer (37° C., 5 mL), which was aerated with a mixed gas of 95% O2 and 5% CO2. The tension values of the specimens were measured using a Magnus system equipped with an isometric transducer and an amplifier, and the measured values were recorded on a computer via a data collection system. The specimens were suspended with a load of about 0.5 g. More than 1 hr later, potassium chloride (100 mmol/L) was added and the maximal contraction response was observed. After washing with Krebs buffer, the specimens were suspended with a load of about 0.5 g for stabilization. A potassium chloride solution (7.5 mmol/L) was added to induce the contraction of the specimens. After the contraction-inducing response was stabilized, the test compound was added in a cumulative manner and the response was observed before and after the treatment with the drug. The change of tension (%) of a test compound of each concentration was calculated with setting the contraction evoked by the addition of potassium chloride solution (mg) at 100%.

Row | Compound | State [1] | State of the salt [1] | other results
1 | CC(C)(C)N [t-Butylamine] | Oily | – | –
2 | CC1CCNCC1 [drawing 23] | Oily | – | –
3 | C[C@@](O)(C/C=C/[C@H]1CCC(=O)[C@@H]1CCSc1nc(C(=O)O)cs1)CCC(F)=C(F)F [Crystalline Form C, piperidin-4-ylmethanol 2-[(2-{(1R,5R)-2-oxo-5-[(1E,4S)-7,8,8-trifluoro-4-hydroxy-4-methyl-1,7-octadien-1-yl]cyclopentyl}ethyl)thio]-1,3-thiazole-4-carboxylate] | – | – | Residual percentage (%) ([2]; 40° C.-75% RH-one month): 97.5%; Residual percentage (%) ([2]; 40° C.-one month): 99.4%; Residual percentage (%) ([2]; 60° C.-one month): 97.9%
4 | OC1CCNCC1 [drawing 24] | Oily | – | –
5 | C[C@@](O)(C/C=C/[C@H]1CCC(=O)[C@@H]1CCSc1nc(C(=O)O)cs1)CCC(F)=C(F)F [Crystalline Form B, piperidin-4-ylmethanol 2-[(2-{(1R,5R)-2-oxo-5-[(1E,4S)-7,8,8-trifluoro-4-hydroxy-4-methyl-1,7-octadien-1-yl]cyclopentyl}ethyl)thio]-1,3-thiazole-4-carboxylate] | – | – | Residual percentage (%) ([2]; 40° C.-75% RH-one month): 92.6%; Residual percentage (%) ([2]; 40° C.-one month): 99.6%; Residual percentage (%) ([2]; 60° C.-one month): 98.3%
6 | CCCCNCCC | Oily | – | –
7 | OCCNCCO [Diethanolamine] | Oily | amorphous oily substances | –
8 | Arginine | Oily | amorphous oily substances | –
9 | OCCC1CCNCC1 [4-piperidineethanol] | – | amorphous oily substances | –
10 | C1CCC(NC2CCCCC2)CC1 [Dicyclohexylamine] | Oily | amorphous oily substances | –
11 | CCN(CC)CC [Triethylamine] | Oily | amorphous oily substances | –
12 | OC[C@@H]1CCCN1 | Oily | – | –
13 | c1ccc(CNCc2ccccc2)cc1 | Oily | – | –
14 | Lysine | Oily | amorphous oily substances | –
15 | C#CCN(C)C | Oily | – | –
16 | C[C@@](O)(C/C=C/[C@H]1CCC(=O)[C@@H]1CCSc1nc(C(=O)O)cs1)CCC(F)=C(F)F [Crystalline Form A, piperidin-4-ylmethanol 2-[(2-{(1R,5R)-2-oxo-5-[(1E,4S)-7,8,8-trifluoro-4-hydroxy-4-methyl-1,7-octadien-1-yl]cyclopentyl}ethyl)thio]-1,3-thiazole-4-carboxylate] | – | – | Residual percentage (%) ([2]; 40° C.-75% RH-one month): 92.0%; Residual percentage (%) ([2]; 40° C.-one month): 99.6%; Residual percentage (%) ([2]; 60° C.-one month): 98.6%
17 | CC1CCNCC1 [4-methylpiperidine] | – | amorphous oily substances | –
18 | [Ca] [Calcium] | Oily | amorphous oily substances | –
19 | Piperidin-4-ylmethanol 2-[(2-{(1R,5R)-2-oxo-5-[(1E,4S)-7,8,8-trifluoro-4-hydroxy-4-methyl-1,7-octadien-1-yl]cyclopentyl}ethyl)thio]-1,3-thiazole-4-carboxylate [Compound 18] | Crystalline solid | – | Change of tension (%) (bladder detrusor; 1 nmol/L): 5.97%; Change of tension (%) (bladder detrusor; 10 nmol/L): 54.35%; Change of tension (%) (bladder detrusor; 100 nmol/L): 177.91%; Change of tension (%) (bladder detrusor; 1 μmol/L): 245.91%; Effect on the bladder detrusor (in words) (bladder detrusor): contracted the bladder detrusor; residual percentages [2]: ≥ 90%
20 | [Mg] [Magnesium] | Oily | amorphous oily substances | –
21 | C=CCNCC=C | Oily | – | –
22 | C[C@@](O)(C/C=C/[C@H]1CCC(=O)[C@@H]1CCSc1nc(C(=O)O)cs1)CCC(F)=C(F)F [Compound 17, 2-[(2-{(1R,5R)-2-oxo-5-[(1E,4S)-7,8,8-trifluoro-4-hydroxy-4-methyl-1,7-octadien-1-yl]cyclopentyl}ethyl)thio]-1,3-thiazole-4-carboxylic acid] | – | – | Residual percentage (%) ([2]; 40° C.-75% RH-one month): 58.6%; Residual percentage (%) ([2]; 40° C.-one month): 76.0%; Residual percentage (%) ([2]; 60° C.-one month): 60.4%; residual percentages [2]: decreased
23 | C1=CCNCC1 | Oily | – | –

Continued, in another order:

Row | State [1] | State of the salt [1] | Compound | other results
24 | Oily | – | C1CCCNCC1 | –
25 | Oily | – | c1ccc2c(c1)CNC2 | –
26 | Oily | – | CCc1ncc[nH]1 | –
27 | Oily | – | CNCCNC | –
28 | Oily | – | CNCCOC | –
29 | – | amorphous oily substances | OC1CCNCC1 [4-hydroxypiperidine] | –
30 | Oily | – | OCCC1CCNCC1 [drawing 22] | –
31 | Oily | – | CN1CCCCC1 | –
32 | Oily | – | COC1CCNCC1 | –
33 | Oily | amorphous oily substances | [K+] [Potassium] | –
34 | Oily | – | CCNCCCCO | –
35 | Oily | amorphous oily substances | Sodium | –
36 | Oily | – | CNCCCO | –
